# Key:
# [1] = tested on: barnyardgrass; test: Test A pre-/postemergence greenhouse test; type: in vivo, Echinochloa crus-galli; details: for Plant response rating, Barnyardgrass: 0 to 100 scale where 0 is no effect and 100 is complete control; for Barnyardgrass plant response rating: 0 to 100 scale
# In short: (§1)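 Visual injury ratings against untreated controls, taken roughly ten days after treatment in greenhouse. Plants were sprayed postemergence at one- to two-leaf stage (2–10 cm tall); at the same time, seeded loam/sand soil received a directed preemergence spray. Formulation: non-phytotoxic solvent mixture with surfactant.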
# [2] = tested on: morningglory; test: Test A pre-/postemergence greenhouse test; type: in vivo, Ipomoea spp.; details: for Plant response rating, Morningglory: 0 to 100 scale where 0 is no effect and 100 is complete control; for Morningglory plant response rating: 0 to 100 scale
# In short: as §1
# [3] = tested on: crabgrass; test: Test A pre-/postemergence greenhouse test; type: in vivo, Digitaria sanguinalis; details: for Plant response rating, Crabgrass, Large: 0 to 100 scale where 0 is no effect and 100 is complete control; for Crabgrass, Large plant response rating: 0 to 100 scale
# In short: as §1
# [4] = tested on: giant foxtail; test: Test A pre-/postemergence greenhouse test; type: in vivo, Setaria faberi; details: for Plant response rating, Foxtail, Giant: 0 to 100 scale where 0 is no effect and 100 is complete control; for Foxtail, Giant plant response rating: 0 to 100 scale
# In short: as §1
# [5] = tested on: duck salad; test: Test C flooded paddy test; type: in vivo, Heteranthera limosa; details: Flood
# In short: (§2)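 Pots were flooded to 3 cm above the soil surface at treatment, compound applied directly to the paddy water, and that depth held throughout. Plants were kept in a greenhouse for 13 to 15 days, then visually rated against untreated controls.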
# [6] = tested on: redroot pigweed; test: Test A pre-/postemergence greenhouse test; type: in vivo, Amaranthus retroflexus; details: for Plant response rating, Pigweed: 0 to 100 scale where 0 is no effect and 100 is complete control; for Pigweed plant response rating: 0 to 100 scale
# In short: as §1
# [7] = tested on: corn; test: Test A pre-/postemergence greenhouse test; type: in vivo, Zea mays; details: for Plant response rating, Corn: 0 to 100 scale where 0 is no effect and 100 is complete control; for Corn plant response rating: 0 to 100 scale
# In short: as §1
# [8] = tested on: rice; test: Test C flooded paddy test; type: in vivo, Oryza sativa; details: Flood
# In short: as §2
# [9] = tested on: barnyardgrass; test: Test C flooded paddy test; type: in vivo, Echinochloa crus-galli; details: Flood
# In short: as §2
# [10] = tested on: umbrella sedge; test: Test C flooded paddy test; type: in vivo, Cyperus difformis; details: Flood
# In short: as §2
# [11] = tested on: velvetleaf; test: Test A pre-/postemergence greenhouse test; type: in vivo, Abutilon theophrasti; details: for Plant response rating, Velvetleaf: 0 to 100 scale where 0 is no effect and 100 is complete control; for Velvetleaf plant response rating: 0 to 100 scale
# In short: as §1
# [12] = tested on: wheat; test: Test A pre-/postemergence greenhouse test; type: in vivo, Triticum aestivum; details: for Plant response rating, Wheat: 0 to 100 scale where 0 is no effect and 100 is complete control; for Wheat plant response rating: 0 to 100 scale
# In short: as §1
# [13] = Postemergence, 500 g ai/ha, 0 is no effect, 100 is complete control
# [14] = Preemergence, 125 g ai/ha, 0 no effect, 100 complete control
# [15] = Preemergence, 500 g ai/ha, 0 no effect, 100 complete control
# [16] = 31 g ai/ha, scale 0 to 100 (0 no effect, 100 complete control)
# [17] = 62 g ai/ha, scale 0 to 100 (0 no effect, 100 complete control)
# [18] = 125 g ai/ha, scale 0 to 100, 0 no effect, 100 complete control, 13 to 15 days
# [19] = 250 g ai/ha, scale 0 to 100, 0 no effect, 100 complete control, 13 to 15 days
# [20] = Postemergence, 125 g ai/ha, 0 is no effect, 100 is complete control
# [21] = 62 g ai/ha, scale 0 to 100, 0 no effect, 100 complete control, 13 to 15 days
# [22] = 250 g ai/ha, scale 0 to 100 (0 no effect, 100 complete control)
compound,measurement,setting,value
Cc1ccc[n+]([O-])c1S(=O)(=O)Cc1c(C(F)(F)F)nn(C)c1OC(F)F [Compound 113],"Plant response rating, Barnyardgrass","[1]; Postemergence, 125 g ai/ha",70
same,Barnyardgrass plant response rating,[1]; [13],80
same,Barnyardgrass plant response rating,[1]; [14],70
same,Barnyardgrass plant response rating,[1]; [15],100
same,"Plant response rating, Morningglory","[2]; Postemergence, 125 g ai/ha",30
same,Morningglory plant response rating,[2]; [13],60
same,Morningglory plant response rating,[2]; [15],80
same,"Plant response rating, Crabgrass, Large","[3]; Postemergence, 125 g ai/ha",60
same,"Crabgrass, Large plant response rating",[3]; [13],80
same,"Crabgrass, Large plant response rating",[3]; [14],80
same,"Crabgrass, Large plant response rating",[3]; [15],90
same,"Plant response rating, Foxtail, Giant","[4]; Postemergence, 125 g ai/ha",60
same,"Foxtail, Giant plant response rating",[4]; [13],80
same,"Foxtail, Giant plant response rating",[4]; [14],80
same,"Foxtail, Giant plant response rating",[4]; [15],90
same,"Plant response rating, Ducksalad",[5]; [16],0
same,"Plant response rating, Ducksalad",[5]; [17],0
same,"Plant response rating, Ducksalad",[5]; [18],0
same,"Plant response rating, Ducksalad",[5]; [19],0
same,"Plant response rating, Pigweed","[6]; Postemergence, 125 g ai/ha",10
same,Pigweed plant response rating,[6]; [13],50
same,Pigweed plant response rating,[6]; [14],10
same,Pigweed plant response rating,[6]; [15],100
same,"Plant response rating, Corn","[7]; Postemergence, 125 g ai/ha",0
same,Corn plant response rating,[7]; [13],60
same,Corn plant response rating,[7]; [14],0
same,Corn plant response rating,[7]; [15],80
same,"Plant response rating, Rice",[8]; [16],0
same,"Plant response rating, Rice",[8]; [17],0
same,"Plant response rating, Rice",[8]; [18],0
same,"Plant response rating, Rice",[8]; [19],0
same,"Plant response rating, Barnyardgrass",[9]; [16],0
same,"Plant response rating, Barnyardgrass",[9]; [17],0
same,"Plant response rating, Barnyardgrass",[9]; [18],0
same,"Plant response rating, Barnyardgrass",[9]; [19],0
same,"Plant response rating, Sedge, Umbrella",[10]; [16],0
same,"Plant response rating, Sedge, Umbrella",[10]; [17],0
same,"Plant response rating, Sedge, Umbrella",[10]; [18],0
same,"Plant response rating, Sedge, Umbrella",[10]; [19],0
same,"Plant response rating, Velvetleaf","[11]; Postemergence, 125 g ai/ha",40
same,Velvetleaf plant response rating,[11]; [13],50
same,Velvetleaf plant response rating,[11]; [14],0
same,Velvetleaf plant response rating,[11]; [15],40
same,"Plant response rating, Wheat","[12]; Postemergence, 125 g ai/ha",40
same,Wheat plant response rating,[12]; [13],60
same,Wheat plant response rating,[12]; [14],0
same,Wheat plant response rating,[12]; [15],60
Cc1cc[n+]([O-])c([S+]([O-])C(C)c2c(C(F)(F)F)nn(C)c2Cl)c1 (mixture of isomers) [Compound 15],Barnyardgrass plant response rating,[1]; [20],0
same,Barnyardgrass plant response rating,[1]; [13],0
same,Barnyardgrass plant response rating,[1]; [14],0
same,"Plant response rating, Barnyardgrass","[1]; Preemergence, 500 g ai/ha",0
same,Morningglory plant response rating,[2]; [20],0
same,Morningglory plant response rating,[2]; [13],0
same,Morningglory plant response rating,[2]; [14],0
same,"Plant response rating, Morningglory","[2]; Preemergence, 500 g ai/ha",0
same,"Crabgrass, Large plant response rating",[3]; [20],0
same,"Crabgrass, Large plant response rating",[3]; [13],0
same,"Crabgrass, Large plant response rating",[3]; [14],0
same,"Plant response rating, Crabgrass, Large","[3]; Preemergence, 500 g ai/ha",20
same,"Foxtail, Giant plant response rating",[4]; [20],0
same,"Foxtail, Giant plant response rating",[4]; [13],0
same,"Foxtail, Giant plant response rating",[4]; [14],0
same,"Plant response rating, Foxtail, Giant","[4]; Preemergence, 500 g ai/ha",0
same,"Plant response rating, Ducksalad",[5]; [16],20
same,"Plant response rating, Ducksalad",[5]; [21],80
same,"Plant response rating, Ducksalad",[5]; [18],80
same,Pigweed plant response rating,[6]; [20],0
same,Pigweed plant response rating,[6]; [13],0
same,"Plant response rating, Pigweed","[6]; Preemergence, 500 g ai/ha",0
same,Corn plant response rating,[7]; [20],0
same,Corn plant response rating,[7]; [13],0
same,Corn plant response rating,[7]; [14],0
same,"Plant response rating, Corn","[7]; Preemergence, 500 g ai/ha",0
same,"Plant response rating, Rice",[8]; [16],0
same,"Plant response rating, Rice",[8]; [21],0
same,"Plant response rating, Rice",[8]; [18],0
same,"Plant response rating, Rice",[8]; [22],0
same,"Plant response rating, Barnyardgrass",[9]; [16],20
same,"Plant response rating, Barnyardgrass",[9]; [21],20
same,"Plant response rating, Barnyardgrass",[9]; [18],20
same,"Plant response rating, Barnyardgrass",[9]; [22],20
same,"Plant response rating, Sedge, Umbrella",[10]; [16],85
same,"Plant response rating, Sedge, Umbrella",[10]; [21],85
same,"Plant response rating, Sedge, Umbrella",[10]; [18],85
same,Velvetleaf plant response rating,[11]; [20],0
same,Velvetleaf plant response rating,[11]; [13],0
same,Velvetleaf plant response rating,[11]; [14],0
same,"Plant response rating, Velvetleaf","[11]; Preemergence, 500 g ai/ha",0
same,Wheat plant response rating,[12]; [20],0
same,Wheat plant response rating,[12]; [13],0
same,Wheat plant response rating,[12]; [14],0
same,"Plant response rating, Wheat","[12]; Preemergence, 500 g ai/ha",0

# Source: patent US20100298141A1, “SUBSTITUTED PYRIDINE N-OXIDE HERBICIDES” (E. I. DU PONT DE NEMOURS AND COMPANY, priority 2007, published 2010)
